From US20100254928A1, “NOVEL COMPOSITION CONTAINING OZONIZED SURFACTANT” (priority 2007, published 2010)

Tests used:
Escherichia coli = experiment: Sterilizing activity value test; format: cell-based; conditions: 0.5% aqueous solution, contact time 5 min, 25 ± 1° C., vs 0.05 (w/v %) Polysorbate 80 control
Procedure: (§1) In order to check the effect of the ozonized surfactant as a sterilizing detergent, a sterilizing activity test was performed. A 0.5% aqueous solution of the solution obtained in Example 4 was tested based on the sterilizing activity test of home care synthetic detergents and soaps, which is a method set by Detergent and Soap Fair Trade Council. […] Each of the control solution and the test sample solutions described in the table below is applied to a test specimen to which bacteria have been inoculated beforehand. After letting the specimens stand for a certain period of time, the viable bacteria count on each specimen is measured. The sterilizing activity value is obtained by subtracting the common logarithm value of the viable bacteria count on the specimen treated with a test sample from the common logarithm value of the viable bacteria count on the specimen treated with the control. […] In a predetermined period of time, an inactivator is applied to inactivate the property suppressing the growth of bacteria and the property killing bacteria, and subsequently the viable bacteria count on the specimen is determined. […]

Staphylococcus aureus = experiment: Sterilizing activity value test; format: cell-based; conditions: 0.5% aqueous solution, contact time 5 min, 25 ± 1° C., vs 0.05 (w/v %) Polysorbate 80 control
Procedure: as §1

Question: Which sterilizing activity value (Escherichia coli) does the source give for “Ozonized POE (10 EO) oleyl ether [Example 4]” here?
Answer: 4.6

Question: And the sterilizing activity value (Staphylococcus aureus)?
Answer: 2.8
